US12642792B2, “CA2-IL15 fusion proteins for tunable regulation” (Obsidian Therapeutics, Inc., priority 2019, dated 2026)

What was measured:
TIL = assay: Expression of constitutive and regulated mbIL15 in TIL in response to ACZ (flow cytometry); assay type: cell-based, human; conditions: TIL transduced with IL15-293
Method: HEK293T cells were seeded on collagen coated tissue culture plates until 70% confluent. Cells were transfected with pELNS transfer vector carrying constitutive (IL15-292) or regulated (IL15-293) IL15 constructs, as well as packaging plasmids (pRSV.REV, pMDLg/pRRE and OT-BaEVg-002 (SEQ ID NO: 51)) using Lipofectamine 3000 transfection reagent in Opti-MEM media. Media was replaced 6-8 hrs post-transfection with serum-free media. Supernatants containing virus were harvested 24 hr post-transfection, fresh media was added, and supernatants were harvested again at 48 hr post-transfection. Viral supernatants were filtered to remove debris and concentrated by low speed ultracentrifugation. Virus were resuspended, aliquoted and stored at −80 C freezer.
96-well non-coated tissue culture plates were incubated with 35 μg per mL RetroNectin (Takara Bio) in PBS for 2 h at 37° C. or overnight at 4° C. RetroNectin was removed and the plates washed with PBS. […]
mbIL15 expression was determined by flow cytometry using two staining reagents: fluorochrome-conjugated anti-IL15 antibody as well as a recombinant protein comprised of extracellular domain of IL15Ra fused to human IgG1 Fc domain (IL15Ra-Fc). mbIL15+ cell frequency was determined based on co-staining with anti-IL15 and IL15Ra-Fc (identified as the IL15+IL15Ra-Fc+ double positive population).

[1] = system: cord blood-derived NK cells; assay: Expression of constitutive and regulated mbIL15 in cord blood NK cells in response to ACZ (FACS); assay type: cell-based, human; conditions: NK cells transduced with IL15-293
Method: Cryopreserved mononuclear cell-fractionated cord blood units were obtained from BioBridge Global. Cord blood was diluted 1:1 with phosphate-buffered saline (PBS) and centrifuged over a cushion of Ficoll-Paque+(Sigma Cat. No. GE17-1440-02). The buffy coat comprising mononuclear cells (MNC) was collected, and the MNC were washed and counted. NK cells were isolated from MNC using EasySep Human NK Cell Isolation Kit (Stemcell Technologies Cat. No. 17955). NK cells were counted and checked for purity by FACS using CD56, CD16, CD3 and viability stain.
One day prior to NK cell isolation as described in Example 8, feeder cells (K562 cells expressing 4-1BBL and mbIL-21) were thawed in complete NK cell media (RPMI with Glutamax (ThermoFisher), 10% heat-inactivated fetal bovine serum (Gibco), 1× Penicillin/Streptomycin, 1 mM Sodium Pyruvate, 1×HEPES, 50 μM 2-Mercaptoethanol). On the day of NK cell isolation, 10×10^6 feeder cells were treated with mitomycin C to inhibit their proliferation and washed to remove excess drug. […] NK cell cultures were expanded by replenishing cell cultures with NK cell media and rhIL2 every two days, and analyzed by FACS for NK cell expansion. […]
mbIL15 expression was determined by flow cytometry using two staining reagents: IL15Ra-Fc and an anti-CD56 antibody. mbIL15+ cell frequency was determined relative to the number of NK cells as determined by the anti-CD56 antibody. […]

Human primary T cells = assay: In vitro antigen-independent expansion of T cells expressing constitutive or ACZ-regulated mbIL15 (cell numbers by flow cytometry); assay type: cell-based; conditions: 2 ng/mL exogenous IL15
Method: Human primary T cells capable of expressing constitutive mbIL15 or ACZ-regulated mbIL15 were prepared in accordance with methods described in Example 1 above.
After T cell transduction and expansion, CD3/CD28 beads were removed using magnets, cells were washed twice, resuspended in fresh media and counted. Cells were plated in 12-well plates at 1×10^6 in 2 mL. One well of untransduced cells was cultured in the presence of 2 ng/mL IL15 as a control. T cells expressing regulated constructs were cultured in the absence or presence of acetazolamide (ACZ, 30, 10, 3, 1, 0.3 μM). Cell numbers were monitored by flow cytometry every 3-4 days and cells were cultured for 10-12 days. At each time point 100 μL of cells were collected from wells and analyzed by flow cytometry. Cells were split as needed. Cell cultures were maintained in 12-well plates by taking a portion and adding media in a new plate. Volumes for each well were recorded before and after split to calculate final volume in cell number assessment. IL15 or ACZ were replenished at final concentration of the fresh media added during each split.
T cell numbers were determined by flow cytometry. Empty vector (EV) transduced cell numbers decreased to background levels between 3-5 days in the absence of IL15, and cells expanded 11-fold in the presence of 2 ng/mL exogenous IL15 (FIG. 3A). […]

## CC(=O)Nc1nnc(S(N)(=O)=O)s1 [ACZ, acetazolamide, reference compound]
TIL
  Effect of ACZ on mbIL15 in transduced TIL: induces CA2 DRD-regulated mbIL15 in transduced TIL
[1]
  Effect of ACZ on mbIL15 in transduced NK: induces CA2 DRD-regulated mbIL15 in transduced NK

## exogenous IL15: exogenous IL15 (2 ng/mL) added to empty vector transduced T cells as control [reference compound]
Human primary T cells
  Expansion of empty vector (EV) transduced T cells in the presence of exogenous IL15: 11 -fold
